Data: patent US20070243215A1, “Adjuvant for Dna Vaccines” (priority 2004, published 2007)

System: N202/1A tumor cells
Assay: Serum transfer and tumor cell challenge
Format: in vivo
Conditions: 150 μL pooled serum from treated donor mice; challenge 24 h later subcutaneously with 10^5 N202/1A tumor cells
Method: Animals were treated as in Example 1 for each of the following groups: (1) Immunized with pCMV-ECD-TM, not treated with IRM (HER-2/neu); (2) Immunized with pCMV-ECD-TM, treated with IRM2 (IRM+HER-2/neu); or (3) untreated (Control). Two weeks after the immunization period was completed, sera were harvested from the animals and pooled among animals receiving the same treatment.
150 μL of pooled serum was injected into eight-week old animals (5 animals/treatment serum). Twenty-four hours after administration of the serum, each mouse was challenged with subcutaneously with 10^5 N202/1A tumor cells and monitored to register the development of tumors.

CC(C)Cn1cnc2c(N)nc3ccccc3c21 [IRM2, 1-(2-methylpropyl)-1H-imidazo[4,5-c]quinolin-4-amine]
percentage of recipient mice remaining tumor free (protection against tumor development): An even greater percentage
